Assay results published in ChEMBL document CHEMBL1123075, “Opioid agonists and antagonists. 6-Desoxy-6-substituted lactone, epoxide, and glycidate ester derivatives of naltrexone and oxymorphone” (J Med Chem, 1985).

Key:
[1] = molecular target: T1, Opioid receptor (Rattus norvegicus, UniProt P33533+P34975+P33535); assay: In vitro opioid receptor binding competition against 1 nM [3H]- Naltrexone in the absence of NaCl.; type: protein assay
[2] = molecular target: T1, Opioid receptor; assay: In vitro opioid receptor binding competition against 1 nM [3H]- Naltrexone in the presence of 100 mM NaCl.; type: protein assay
[3] = molecular target: Opioid receptor (Rattus norvegicus) (UniProt P33533+P34975+P33535); assay: Ratio of IC50 value in presence of NaCl to that of NaCl absence against opioid receptor.; type: protein assay
[4] = Activity against specific binding of [3H]naltrxone at dose 200 nM & at 25 degree C in the absence of Na+ ion (unwashed )
[5] = Activity against specific binding of [3H]naltrxone at dose 200 nM & at 25 degree C in the absence of Na+ ion (washed)
[6] = Activity against specific binding of [3H]-naltrxone at dose 200 nM & at 25 degree C in the presence of Na+ ion (unwashed )
[7] = Activity against specific binding of [3H]naltrxone at dose 200 nM & at 25 degree C in the presence of Na+ ion (washed)
[8] = Activity against specific binding of [3H]naltrxone at dose 500 nM & at 37 degree C in the presence of Na+ ion (unwashed )
[9] = Activity against specific binding of [3H]naltrxone at dose 500 nM & at 37 degree C in the presence of Na+ ion(washed)
[10] = Activity against specific binding of [3H]naltrxone at dose 75 nM & at 37 degree C in the absence of Na+ ion (unwashed )
[11] = Activity against specific binding of [3H]naltrxone at dose 75 nM & at 37 degree C in the absence of Na+ ion (washed)

SMILES | IC50 [1] | IC50 [2] | Ratio [3] | further results
C=C1C(=O)OC2C1CC1(O)[C@H]3Cc4ccc(O)c5c4[C@@]1(CCN3CC1CC1)C2O5 (stereo partly specified) | 10 nM | 7 nM | 0.7 | –
C=C1CC2(CCC3(O)[C@H]4Cc5ccc(O)c6c5[C@@]3(CCN4C)C2O6)OC1=O (stereo in doubt; 5b) [listing 1 of 2 here] | 35 nM | 250 nM | – | –
O=C1C=CC2(CCC3(O)[C@H]4Cc5ccc(O)c6c5[C@@]3(CCN4CC3CC3)C2O6)O1 (stereo partly specified) | 10 nM | 10 nM | 1 | –
Oc1ccc2c3c1OC1C4(CCC5(O)[C@@H](C2)N(CC2CC2)CC[C@]315)CO4 (stereo in doubt; 13a) [listing 1 of 2 here] | 5.1 nM | 3.4 nM | – | –
C=C1C(=O)OC2=C1CC1(O)[C@H]3Cc4ccc(O)c5c4[C@@]1(CCN3CC1CC1)C2O5 (stereo partly specified) | 100 nM | 50 nM | 0.5 | –
CC1=CC2(CCC3(O)C4Cc5ccc(O)c6c5[C@@]3(CCN4C)C2O6)OC1=O (stereo partly specified) | 200 nM | > 1000 nM | > 5 | –
CC1CC2(CCC3(O)[C@H]4Cc5ccc(O)c6c5[C@@]3(CCN4CC3CC3)C2O6)OC1=O (stereo partly specified) | 10 nM | 6 nM | 0.6 | –
Oc1ccc2c3c1OC1C4(CCC5(O)[C@@H](C2)N(CC2CC2)CC[C@]315)CO4 (stereo in doubt; 12a) [listing 1 of 2 here] | – | – | 0.5 | –
Oc1ccc2c3c1OC1C4(CCC5(O)[C@@H](C2)N(CC2CC2)CC[C@]315)CO4 (stereo in doubt; 13a) [listing 2 of 2 here] | – | – | 0.6 | –
Oc1ccc2c3c1OC1C4(CCC5(O)[C@@H](C2)N(CC2CC2)CC[C@]315)CO4 (stereo in doubt; 12a) [listing 2 of 2 here] | 4 nM | 2 nM | – | –
C=C1CC2(CCC3(O)[C@H]4Cc5ccc(O)c6c5[C@@]3(CCN4C)C2O6)OC1=O (stereo in doubt; 6b) [listing 1 of 2 here] | – | – | 7 | –
CC1CC2(CCC3(O)C4Cc5ccc(O)c6c5[C@@]3(CCN4C)C2O6)OC1=O (stereo partly specified) | 30 nM | 500 nM | 16.7 | –
CCOC(=O)[C@@H]1OC12CCC1(O)C3Cc4ccc(O)c5c4[C@@]1(CCN3C)C2O5 (stereo partly specified) | 15 nM | 200 nM | 13.3 | –
C=C1CC2(CCC3(O)[C@H]4Cc5ccc(O)c6c5[C@@]3(CCN4C)C2O6)OC1=O (stereo in doubt; 5b) [listing 2 of 2 here] | – | – | 7 | Control [4]: 35%; Control [5]: 79%; Control [6]: 43%; Control [7]: 63%; Control [8]: 34%; Control [9]: 56%; Control [10]: 66%; Control [11]: 97%
CCOC(=O)[C@H]1OC12CCC1(O)C3Cc4ccc(O)c5c4[C@@]1(CCN3C)C2O5 (stereo partly specified) | 70 nM | 1000 nM | 14.2 | –
CN1CC[C@]23c4c5ccc(O)c4OC2C2(CCC3(O)C1C5)CO2 (stereo partly specified) | 8 nM | 60 nM | 7.5 | –
C=C1CC2(CCC3(O)[C@H]4Cc5ccc(O)c6c5[C@@]3(CCN4CC3CC3)C2O6)OC1=O (stereo in doubt; 6a) [listing 1 of 2 here] | – | – | 1.2 | –
C=C1CC2(CCC3(O)[C@H]4Cc5ccc(O)c6c5[C@@]3(CCN4CC3CC3)C2O6)OC1=O (stereo in doubt; 6a) [listing 2 of 2 here] | 12.5 nM | 15 nM | – | –
CC1=CC2(CCC3(O)[C@H]4Cc5ccc(O)c6c5[C@@]3(CCN4CC3CC3)C2O6)OC1=O (stereo partly specified) | 40 nM | 70 nM | 1.8 | –
CCOC(=O)[C@@H]1OC12CCC1(O)[C@H]3Cc4ccc(O)c5c4[C@@]1(CCN3CC1CC1)C2O5 (stereo partly specified) | 6 nM | – | 1 | –
C=C1CC2(CCC3(O)[C@H]4Cc5ccc(O)c6c5[C@@]3(CCN4CC3CC3)C2O6)OC1=O (stereo in doubt; 5a) [listing 1 of 2 here] | – | – | 0.4 | –
CCOC(=O)[C@H]1OC12CCC1(O)[C@H]3Cc4ccc(O)c5c4[C@@]1(CCN3CC1CC1)C2O5 (stereo partly specified) | 2.3 nM | 3.5 nM | 1.5 | –
C=C1CC2(CCC3(O)[C@H]4Cc5ccc(O)c6c5[C@@]3(CCN4C)C2O6)OC1=O (stereo in doubt; 6b) [listing 2 of 2 here] | 125 nM | 880 nM | – | –
C=C1CC2(CCC3(O)[C@H]4Cc5ccc(O)c6c5[C@@]3(CCN4CC3CC3)C2O6)OC1=O (stereo in doubt; 5a) [listing 2 of 2 here] | 5 nM | 2 nM | – | –
